The text below walks through data of patent US20170240556A1, “BIFLUORODIOXALANE-AMINO-BENZIMIDAZOLE KINASE INHIBITORS FOR THE TREATMENT OF CANCER, AUTOIMMUNEINFLAMMATION AND CNS DISORDERS” (4SC DISCOVERY GMBH, priority 2012, published 2017).

A value given as a limit tells only on which side of the number the result lay.

Assay [1] addresses Casein kinase 1 delta (CSKN1D) (Homo sapiens, UniProt P48730). Description: Casein kinase assay, CK1 delta. The assay is classed as biochemical. The following applies: recombinant CSKN1D 5 nM, ATP 10 μM.
Assay [2] addresses Casein kinase 1 epsilon (CSKN1E) (Homo sapiens, UniProt P49674). Description: Casein kinase assay, CK1 epsilon. It is filed as biochemical. The following applies: recombinant CSKN1E 30 nM, ATP 10 μM.
The test system of assay [3] is Hedgehog signaling pathway. The experiment in a line: Hedgehog reporter assay (Gli Reporter - NIH3T3 Cell Line). The following applies: Mus musculus; Gli reporter NIH3T3 cells, murine SHH stimulation, 24 h; read-out: HH Assay. The assay is classed as cell-based. The protocol:
In order to investigate the potency of test compounds to inhibit the Hedgehog signaling pathway, a Gli-Reporter assay was performed.
The “Gli Reporter—NIH3T3 Cell Line” contains the firefly luciferase gene under the control of Gli responsive elements stably integrated into murine NIH3T3 cells (cells purchased from Amsbio). The luciferase expression correlates with activation of the hedgehog signaling pathway. This cell line is validated for its response to stimulation with murine Sonic Hedgehog and to treatment with inhibitors of the hedgehog signaling pathway. A multiplexed viability assay was used to discriminate inhibition on the pathway activity from cell toxicity.
Growth Medium: DMEM, 10% Calf Serum, 1% Penicillin/Streptomycin 500 μg/ml Geneticin (G418 Stock 50 mg/ml).
25.000 cells per well were seeded into a white 96 well plate in 100 μl growth medium and incubated over night at 37° C. and 5% CO2. After removing the supernatant the test compounds and controls (known GLI inhibitor, e.g. GANT-61) were added in different concentrations in a final volume of 45 μl and incubated for 1 h at 37° C. and 5% CO2. For the stimulation of the Hedgehog pathway 5 μl of 10 μg/ml concentrated murine sonic hedgehog (SHH) was added to the cells. A final concentration of 1 μg/ml mSHH and 0.1% DMSO was reached per well. After incubation for 24 h at 37° C. the cells were investigated for viability and reporter activity.
Viability: For the determination of the viability of the treated cells the CellTiter-Fluor Kit from Promega was used. Essentially, only proteases of viable cells are able to cleave the cell-permeant substrate Gly-Phe-AFCoumarin (GF-AFC). By this cleavage the fluorescent AFC is set free and can be detected in a fluorescence reader. For this assay 10 μl of GF-AFC substrate (CellTiter-Fluor, Promega #G6082) was diluted in 2 ml assay buffer from the CellTiter-Fluor Kit and 10 μl of this dilution was added per well to the cells and incubated for 30 min at 37° C. The fluorescence was measured with excitation at 380-400 nm and emission at 505 nm.
Reporter activity: The firefly luciferase reporter activity was detected with the ONE-Glo™ Luciferase Assay System from Promega. For this assay 50 μl ONE-Glo luciferase reagent (Promega #E6120, contains cell lysis buffer and luciferin) was added to each well and incubated at room temperature for 5 min. Luminescence was detected in a plate reader and served as a degree for reporter activity.

Assay [4] deals with Wnt/β-catenin signaling pathway. The experiment in a line: Wnt reporter assay (CellSensor LEF/TCF-bla FreeStyle 293F cells). The assay is classed as cell-based. The following applies: Homo sapiens; LEF/TCF-bla 293F cells, LiCl and mWnt3a stimulation. The procedure: The Wnt reporter assay was performed in stably transfected human HEK293 cells. Wnt signaling was induced by administration of Wnt3a protein and read out by β-Lactamase mediated cleavage of CCF4-AM and subsequent fluorescent detection.
CellSensor LEF/TCF-bla FreeStyle 293F cells (invitrogen #K1677) contain a beta-lactamase reporter gene under control of the β-catenin/LEF/TCF binding elements stably integrated into FreeStyle 293F cells. This cell line can be used to detect antagonists of the Wnt/β-catenin signaling pathway when stimulated by mouse Wnt3a or LiCl. The detection of beta-lactamase is possible with LiveBLAzer FRET—B/G Loading Kit (invitrogen #K1095) with CCF4-AM as subtrate.
Culture Medium: DMEM Medium +10% dialyzed FBS (PAN 2102-P290310), +1% NEAA (PAA M11-003), +1% P/S (Penicillin/Streptomycin, PAA P11-010) +25 mM HEPES (PAA S11-001), +5 μg/ml Blasticidin (PAA P05-017).
Cells (CellSensor LEF/TCF-bla FreeStyle 293F, invitrogen K1677) were split with Culture Medium to reach a confluence at the beginning of the assay of 80-90%.
At start of the assay, cells were harvested from culture and resuspend in assay medium at density of 0,66*10̂6 cells/ml. Subsequently, 60μ1 cell suspension were pipetted in each well of a Poly-D-Lysine 96 well Plate (BD #354640, vertical rows are marked 1 through 12, horizontal lanes are marked A through H),
Plates were subsequently incubated at 37° C. for at least 2 h.
To stimulate with Wnt3a, overnight prestimulation of Wnt signalling pathway with LiCl is necessary. Subsequently, an 8M aqueous LiCl solution was diluted 1:200 in assay medium, and 30 μl of said diluted LiCl solution was plated into the appropriate wells (see below pipetting scheme). Plates were then incubated at 37° C. over night.
Subsequently, compounds and controls were prepared as follows: mWnt3a (R&D 1324-WN, dissolved in PBS+0.1% BSA to 40 μg/ml) was diluted 1:100 in assay medium (=400 ng/ml). Compounds (Cpd) were diluted to a concentration of 10 mM in DMSO to prepare dilution series in assay medium (final concentrations 30 μM, 10 μM, 3 μM, 1 μM, 0.3 μM, 0.1 μM, 0.03 μM and 0.01 μM), which were pipetted into the appropriate wells (see below pipetting scheme). For each dilution of each compound, 3 replicates were tested. Final DMSO concentration was 0.3%.
LiCl and mWnt3a stimulated cells were used as High control (HC), unstimulated cells were used as low control, a blank was prepared from cell free medium plus mWnt3a, and a functional control was prepared with a known Wnt inhibitor (e.g. PKF118-310), final concentrations were as above.
Subsequently, the well was incubated for 5 h at 37° C.
At t=23 hours, FRET reagent mix (Loading Kit with CCF4-AM, Life Technologies #K1096) was prepared; per plate: 138 μl Solution B, 13.8 μl FRET-reagent, and 2300 μl Solution C. 24 μl FRET reagent mix were plated to each well, subsequently plates were incubated for at least 2 h in the dark (it is possible to incubate over night). Subsequently, plates were measured in the BMG FluorStar® plate reader at an emission waveltengths of 460 and 520 nm and with an excitation wavelength of 405 nm.
To determine potential cytotoxicity of the compounds, plates were centrifuge and the supernatant was discarded by dumping the plates. Subsequently, 100 μl Opti-MEM and 50 μl ViaLight (Lonza #LT07-321) Lysis Buffer were added to each well, followed by incubation for 10 min at room temperature (25° C.). Subsequently, 100 μl ViaLight reagent were added to each well, followed by incubation for 2 min at room temperature (25° C.) in the dark. Optionally, 200 μl of the obtained suspension were transferred to a white 96 well plate. The luminescence was measured with a Tecan Ultra plate reader.

Casein kinase 1 delta (CSKN1D), sequence (P48730 whole entry): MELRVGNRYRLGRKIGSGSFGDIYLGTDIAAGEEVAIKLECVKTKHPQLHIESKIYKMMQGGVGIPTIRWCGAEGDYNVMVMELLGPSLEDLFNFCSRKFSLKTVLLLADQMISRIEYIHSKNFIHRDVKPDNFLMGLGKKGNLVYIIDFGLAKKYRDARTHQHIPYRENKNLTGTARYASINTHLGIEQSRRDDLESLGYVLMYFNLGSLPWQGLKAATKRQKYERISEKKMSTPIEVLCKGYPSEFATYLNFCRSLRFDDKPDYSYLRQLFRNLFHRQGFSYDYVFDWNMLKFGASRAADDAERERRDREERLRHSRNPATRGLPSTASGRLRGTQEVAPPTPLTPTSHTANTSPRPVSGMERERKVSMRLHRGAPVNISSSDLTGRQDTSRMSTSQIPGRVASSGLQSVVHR
Casein kinase 1 epsilon (CSKN1E), sequence (P49674 whole entry): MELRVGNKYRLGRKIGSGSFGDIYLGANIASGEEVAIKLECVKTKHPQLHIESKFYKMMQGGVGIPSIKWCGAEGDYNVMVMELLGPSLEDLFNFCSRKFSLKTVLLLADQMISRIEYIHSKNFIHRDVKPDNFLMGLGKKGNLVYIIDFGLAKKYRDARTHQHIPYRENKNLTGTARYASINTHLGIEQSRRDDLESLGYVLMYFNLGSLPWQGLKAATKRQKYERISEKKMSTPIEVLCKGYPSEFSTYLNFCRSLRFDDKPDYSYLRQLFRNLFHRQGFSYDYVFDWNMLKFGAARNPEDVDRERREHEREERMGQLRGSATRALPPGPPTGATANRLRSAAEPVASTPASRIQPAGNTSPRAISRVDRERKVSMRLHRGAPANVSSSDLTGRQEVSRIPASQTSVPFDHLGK

Consider `O=C(Nc1nc2cc3c(cc2[nH]1)OC(F)(F)O3)c1cccc(-c2ncc[nH]2)c1` [Compound 140, N-(2,2-difluoro-5H-[1,3]dioxolo[4′,5′:4,5]benzo[1,2-d]imidazol-6-yl)-3-(1H-imidazol-2-yl)benzamide], for which the IC50 in assay [1] was under 200 nM; in assay [2] it was under 200 nM; in assay [3], 500 to 1000 nM; in assay [4], under 5000 nM.

Consider `Cc1nc(-c2cccc(C(=O)Nc3nc4cc5c(cc4[nH]3)OC(F)(F)O5)c2)no1` [Compound 137, N-(2,2-difluoro-5H-[1,3]dioxolo[4′,5′:4,5]benzo[1,2-d]imidazol-6-yl)-3-(5-methyl-1,2,4-oxadiazol-3-yl)benzamide], for which the IC50 in assay [1] is under 200 nM; in assay [2], under 200 nM; in assay [3], 500 to 1000 nM; in assay [4], under 5000 nM.

As to `O=C(Nc1nc2cc3c(cc2[nH]1)OC(F)(F)O3)c1cccc(-n2cnnn2)c1` [Compound 149, N-(2,2-difluoro-5H-[1,3]dioxolo[4′,5′:4,5]benzo[1,2-d]imidazol-6-yl)-3-(1H-tetrazol-1-yl)benzamide], the IC50 in assay [1] was under 200 nM; in assay [2] it was under 200 nM; in assay [3] it was 1000 to 15000 nM; in assay [4] it was 5000 to 20000 nM.

Turning to `COc1cc(OC)cc(C(=O)Nc2nc3cc4c(cc3[nH]2)OC(F)(F)O4)c1` [Compound 1B, N-(2,2-difluoro-5H-[1,3]dioxolo[4′,5′:4,5]benzo[1,2-d]imidazol-6-yl)-3,5-dimethoxybenzamide], the IC50 in assay [1] is under 200 nM; in assay [2], under 200 nM; in assay [4] it was under 5000 nM.

In the case of `O=C(Nc1nc2cc3c(cc2[nH]1)OC(F)(F)O3)c1cccc(-c2nccs2)c1` [Compound 2B, N-(2,2-difluoro-5H-[1,3]dioxolo[4′,5′:4,5]benzo[1,2-d]imidazol-6-yl)-3-(thiazol-2-yl)benzamide], the figures for the IC50 in assay [1] and in assay [4] were under 200 nM and under 5000 nM, respectively.

On to `Cc1nnnn1-c1cccc(C(=O)Nc2nc3cc4c(cc3[nH]2)OC(F)(F)O4)c1` [Compound 148, N-(2,2-difluoro-5H-[1,3]dioxolo[4′,5′:4,5]benzo[1,2-d]imidazol-6-yl)-3-(5-methyl-1H-tetrazol-1-yl)benzamide], for which the values for the IC50 in assay [1], in assay [2] and in assay [4] were under 200 nM, under 200 nM and under 5000 nM, respectively.

In the case of `COc1cc(C(=O)Nc2nc3cc4c(cc3[nH]2)OC(F)(F)O4)ccc1N` [Compound 9B, 4-amino-N-(2,2-difluoro-5H-[1,3]dioxolo[4′,5′:4,5]benzo[1,2-d]imidazol-6-yl)-3-methoxybenzamide], the results for the IC50 in assay [1], in assay [3] and in assay [4] were under 200 nM, at most 500 nM and under 5000 nM, respectively.
